Results as given in patent US7807384B2, “Low density lipoprotein binding proteins and their use in diagnosing and treating atherosclerosis” (Boston Heart Foundation, Inc., priority 1996, dated 2010).

Tests used:
LBP-1/LDL binding = biological target: T1, LBP-1/LDL binding (Homo sapiens, UniProt P04114); assay: ACE assay of LBP-1/LDL binding in the presence of inhibitors; design: species or system rabbit; conditions: LDL 148 nM in gel; increasing inhibitor (polyglutamic acid 0-0.4 nM; BHF-1 0-10 nM)
T1 construct: the sizes of the recombinant proteins were determined to be 16.2 kDa for LBP-1; LDL was prepared from the plasma of normolipemic donors; 6-histidine tag (N); made in house; host or cells: E. coli DH10B, pPROEX-HT (LBP-1); LDL from human donor plasma
Procedure: (§1) This example illustrates that binding between LBP-1 or LBP-2 and LDL is inhibited by polyglutamic acid or BHF-1. The ability of a third compound to inhibit binding between two proteins previously shown to interact was tested by a modification of the ACE assays described in Example 8. The third compound was added to the top or wells together with the radiolabeled protein.
(§2) Inhibition of LBP-1/LDL or LBP-2/LDL binding by polyglutamic acid (average MW about 7500, corresponding to about […]) was shown by casting a constant amount of LDL (148 nM) in all the rectangular lanes. A constant amount (1 μl) of ^125I-labeled LBP-1 or LBP-2 (0.003 nM-0.016 nM) was loaded in the wells at the top of the gel, together with increasing concentrations of polyglutamic acid (obtained from Sigma) (0-0.4 nM). The gel was electrophoresed at 70 volts for 2 hr, dried and placed on X-ray film, with intensifying screens, overnight at −70° C. before the film was developed to determine the retardation profile of LBP-1 and LBP-2.
Inhibition of LBP-1/LDL binding by BHF-1 was shown by casting a constant amount of LDL (148 nM) in all the rectangular lanes. A constant amount of ^125I-labeled LBP-1 (0.003 nM-0.016 nM) was loaded in the wells at the top of the gel, together with increasing concentrations of BHF-1 (0-10 nM), obtained as described in Example 15. […]

recombinant LBP-1 = biological target: T2, recombinant LBP-1 (Homo sapiens, UniProt P04114); assay: ELISA plate assay, binding of LDL to recombinant LBP-1; conditions: ELISA format
T2 construct: the sizes of the recombinant proteins were determined to be 16.2 kDa for LBP-1; 6-histidine tag (N); made in house; host or cells: E. coli DH10B, pPROEX-HT (LBP-1); LDL from human donor plasma
Procedure: (§3) In one example, the ELISA assay was carried out as follows: LDL was diluted in 50 mM Na2HCO3, pH 9.6/0.02% NaN3 and added to the wells of a 96-well plate (ImmunoWare 96-Well Reacti-Bind EIA Polystyrene Plates; Pierce (Rockford, Ill.)) to achieve a final concentration ranging from 0.1 to 1 μg/well. The plates were incubated for 6 hr at room temperature. At the end of the incubation period, the wells were washed 3 times with Tris-buffered saline, pH 7.4 (TBS), and blocked overnight with 200 μl of 1% bovine serum albumin (BSA) in TBS/0.02% NaN3 (Sigma; St. Louis Mo.) at room temperature. The wells were then incubated with 200 μl of LBP protein (5-10 μg/well) in TBS and varying concentrations of the test compound. Plates were incubated for 1 hr at room temperature. The wells were then washed three times with TBS and blocked for 2 hr with 200 μl of 1% BSA in TBS/0.02% NaN3 at room temperature. At the end of the incubation period, the wells were washed 3 times with TBS and a 1:1000 dilution (in TBS/0.05% Tween 20) of the appropriate guinea pig anti-LBP protein polyclonal antibody was added to the wells and incubated for 1 hr at room temperature. […] The absorbance was determined at 405 nm using an ELISA plate reader. The test compound's effectiveness in blocking the binding of LDL to the recombinant protein was assessed by comparing the absorbance values of control and treated groups. […]

recombinant LBP-2 = assay: ELISA plate assay, binding of LDL to recombinant LBP-2; conditions: ELISA format
Procedure: as §3

[1] = test system: ballooned deendothelialized rabbit aorta; assay: Radiolabeled LDL accumulation in ballooned deendothelialized abdominal aorta after active immunization; format: in vivo; conditions: immunized with RIBI adjuvant; corrected for dosage and percent reendothelialization; 24 hr after 125I-LDL
Procedure: Immunity was induced in male New Zealand White rabbits (Hazelton Research Products, Denver, Pa.) as follows: A mixture of purified human recombinant LBP-2 or BHF-1 peptide (1 ml; 1 mg) and RIBI adjuvant (RIBI ImmunoChem Research, Inc., Hamilton, Mont.) was injected subcutaneously at 2-5 sites along the dorsal thoracic and abdominal regions of the rabbits. Blood was collected by venipuncture on days 1 (preimmune bleeding), 35, 63, and 91. Booster injections were administered on days 28 (500 μg; SC), 56 (250 μg; SC), and 84 (125 μg; SC).
On day 93, the abdominal aorta of immunized and control rabbits was deendothelialized using a Fogarty number 4 embolectomy catheter (Chang et al., Arteriosclerosis and Thrombosis 12:1088-1098 (1992)). Four weeks after ballooning, rabbits received a bolus injection of ^125I-labeled LDL (1 ml; i.v.). […] Blood samples were centrifuged for 30 min at 2000 rpm ([…]) and total activity present in the serum was determined using a Gamma counter. Total TCA precipitable counts were determined by addition of TCA to the serum to a final concentration of 10% followed by incubation for 10 min at 4° C. Serum samples were then centrifuged (2000 rpm; 30 min; […]) and total activity present in the supernate was determined. TCA precipitable counts were calculated by subtraction: total soluble counts minus counts present in the supernate after TCA precipitation. […]

[2] = test system: LDL receptor (LDLR) knockout mice; assay: Aortic cholesterol content in BHF-1-immunized LDLR knockout mice; format: in vivo, mouse; conditions: 30 weeks of age, modified Western Type diet, P>0.037 as printed
Procedure: An immunization experiment was performed with the BHF-1 peptide. LDL receptor (LDLR) knockout mice (B6,129S-Ldlr^tmlHer, Jackson Laboratories, Bar Harbor, Me.) were injected with the BHF-1 peptide (see Example 15 for methods of synthesizing the BHF-1 peptide) together with an RIBI adjuvant (RIBI ImmunoChem Research, Inc., Hamilton, Mont.). LDLR knockout mice are hyperlipidemic and thus a model for human atherosclerosis. LDLR knockout mice have high levels of plasma cholesterol and develop naturally-occurring atherosclerotic-like lesions.
Four week old LDLR knockout mice were ear tagged, randomly assigned to different cages and weighed. Body weights were subsequently determined weekly. Animals were allowed to habituate for one week prior to experimentation. […]
Mice in the experimental group received subcutaneous injections (9.99 μg/g body weight; 200 μl final volume) of the BHF-1.20.L peptide daily for 2 weeks, from 5 to 7 weeks of age, prior to the initial injection with the peptide and adjuvant. […] Titer was defined as the maximum dilution of serum that yielded a change in absorbance equivalent to 2× that of control serum (60 min; 37° C.). […]
At 30 weeks of age, the mice were sacrificed and aorta were removed as described in Example 22. Aortic atherosclerosis was measured by the cholesterol extraction method described in Example 22, whereby cholesterol is determined as a unit weight of artery.

[3] = Body weight and serum lipids of BHF-1-immunized LDLR knockout mice; format: in vivo, mouse
Text: Four week old LDLR knockout mice were ear tagged, randomly assigned to different cages and weighed. Body weights were subsequently determined weekly. Animals were allowed to habituate for one week prior to experimentation. Normal rodent chow was provided ad libitum and animals were maintained in a 12:12 light:dark cycle. Animals were divided into experimental and control groups, as follows: (1) experimental, 16 mice were immunized with the BHF-1.20.L peptide; (2) control, 8 mice were immunized against bovine serum albumin.
Blood samples were analyzed for total cholesterol, HDL cholesterol, and triglyceride concentration, using commercially available total cholesterol and triglycerides assay kits (Sigma, St. Louis Mo.) (ELISA). HDL concentration was determined after Apo B containing lipoproteins were precipitated using heparin/MnCl2.
When fed a normal rodent chow, total serum cholesterol concentration in LDLR knockout mice remains relatively low. A high fat diet, on the other hand, results in an increase in total serum cholesterol concentration in these mice. The animals were thus switched at 16 weeks of age to a modified “Western Type” diet (0.1% cholesterol content) (Harland Teklad, Madison, Wis.) and fed ad libitum. This diet was expected to increase the total serum cholesterol concentration to a range of 600-800 mg/dl, thereby increasing the rate of lesion formation. […]

LBP-2/LDL binding = biological target: T3, LBP-2/LDL binding (Homo sapiens, UniProt P04114); assay: ACE assay of LBP-2/LDL binding in the presence of inhibitors; design: species or system rabbit; conditions: LDL 148 nM in gel; polyglutamic acid 0-0.4 nM
T3 construct: LDL was prepared from the plasma of normolipemic donors; 6-histidine tag (N); made in house; host or cells: E. coli DH10B, pPROEX-HT (LBP-2); LDL from human donor plasma
Procedure: as §1, §2

T1 sequence (P04114 28-4563): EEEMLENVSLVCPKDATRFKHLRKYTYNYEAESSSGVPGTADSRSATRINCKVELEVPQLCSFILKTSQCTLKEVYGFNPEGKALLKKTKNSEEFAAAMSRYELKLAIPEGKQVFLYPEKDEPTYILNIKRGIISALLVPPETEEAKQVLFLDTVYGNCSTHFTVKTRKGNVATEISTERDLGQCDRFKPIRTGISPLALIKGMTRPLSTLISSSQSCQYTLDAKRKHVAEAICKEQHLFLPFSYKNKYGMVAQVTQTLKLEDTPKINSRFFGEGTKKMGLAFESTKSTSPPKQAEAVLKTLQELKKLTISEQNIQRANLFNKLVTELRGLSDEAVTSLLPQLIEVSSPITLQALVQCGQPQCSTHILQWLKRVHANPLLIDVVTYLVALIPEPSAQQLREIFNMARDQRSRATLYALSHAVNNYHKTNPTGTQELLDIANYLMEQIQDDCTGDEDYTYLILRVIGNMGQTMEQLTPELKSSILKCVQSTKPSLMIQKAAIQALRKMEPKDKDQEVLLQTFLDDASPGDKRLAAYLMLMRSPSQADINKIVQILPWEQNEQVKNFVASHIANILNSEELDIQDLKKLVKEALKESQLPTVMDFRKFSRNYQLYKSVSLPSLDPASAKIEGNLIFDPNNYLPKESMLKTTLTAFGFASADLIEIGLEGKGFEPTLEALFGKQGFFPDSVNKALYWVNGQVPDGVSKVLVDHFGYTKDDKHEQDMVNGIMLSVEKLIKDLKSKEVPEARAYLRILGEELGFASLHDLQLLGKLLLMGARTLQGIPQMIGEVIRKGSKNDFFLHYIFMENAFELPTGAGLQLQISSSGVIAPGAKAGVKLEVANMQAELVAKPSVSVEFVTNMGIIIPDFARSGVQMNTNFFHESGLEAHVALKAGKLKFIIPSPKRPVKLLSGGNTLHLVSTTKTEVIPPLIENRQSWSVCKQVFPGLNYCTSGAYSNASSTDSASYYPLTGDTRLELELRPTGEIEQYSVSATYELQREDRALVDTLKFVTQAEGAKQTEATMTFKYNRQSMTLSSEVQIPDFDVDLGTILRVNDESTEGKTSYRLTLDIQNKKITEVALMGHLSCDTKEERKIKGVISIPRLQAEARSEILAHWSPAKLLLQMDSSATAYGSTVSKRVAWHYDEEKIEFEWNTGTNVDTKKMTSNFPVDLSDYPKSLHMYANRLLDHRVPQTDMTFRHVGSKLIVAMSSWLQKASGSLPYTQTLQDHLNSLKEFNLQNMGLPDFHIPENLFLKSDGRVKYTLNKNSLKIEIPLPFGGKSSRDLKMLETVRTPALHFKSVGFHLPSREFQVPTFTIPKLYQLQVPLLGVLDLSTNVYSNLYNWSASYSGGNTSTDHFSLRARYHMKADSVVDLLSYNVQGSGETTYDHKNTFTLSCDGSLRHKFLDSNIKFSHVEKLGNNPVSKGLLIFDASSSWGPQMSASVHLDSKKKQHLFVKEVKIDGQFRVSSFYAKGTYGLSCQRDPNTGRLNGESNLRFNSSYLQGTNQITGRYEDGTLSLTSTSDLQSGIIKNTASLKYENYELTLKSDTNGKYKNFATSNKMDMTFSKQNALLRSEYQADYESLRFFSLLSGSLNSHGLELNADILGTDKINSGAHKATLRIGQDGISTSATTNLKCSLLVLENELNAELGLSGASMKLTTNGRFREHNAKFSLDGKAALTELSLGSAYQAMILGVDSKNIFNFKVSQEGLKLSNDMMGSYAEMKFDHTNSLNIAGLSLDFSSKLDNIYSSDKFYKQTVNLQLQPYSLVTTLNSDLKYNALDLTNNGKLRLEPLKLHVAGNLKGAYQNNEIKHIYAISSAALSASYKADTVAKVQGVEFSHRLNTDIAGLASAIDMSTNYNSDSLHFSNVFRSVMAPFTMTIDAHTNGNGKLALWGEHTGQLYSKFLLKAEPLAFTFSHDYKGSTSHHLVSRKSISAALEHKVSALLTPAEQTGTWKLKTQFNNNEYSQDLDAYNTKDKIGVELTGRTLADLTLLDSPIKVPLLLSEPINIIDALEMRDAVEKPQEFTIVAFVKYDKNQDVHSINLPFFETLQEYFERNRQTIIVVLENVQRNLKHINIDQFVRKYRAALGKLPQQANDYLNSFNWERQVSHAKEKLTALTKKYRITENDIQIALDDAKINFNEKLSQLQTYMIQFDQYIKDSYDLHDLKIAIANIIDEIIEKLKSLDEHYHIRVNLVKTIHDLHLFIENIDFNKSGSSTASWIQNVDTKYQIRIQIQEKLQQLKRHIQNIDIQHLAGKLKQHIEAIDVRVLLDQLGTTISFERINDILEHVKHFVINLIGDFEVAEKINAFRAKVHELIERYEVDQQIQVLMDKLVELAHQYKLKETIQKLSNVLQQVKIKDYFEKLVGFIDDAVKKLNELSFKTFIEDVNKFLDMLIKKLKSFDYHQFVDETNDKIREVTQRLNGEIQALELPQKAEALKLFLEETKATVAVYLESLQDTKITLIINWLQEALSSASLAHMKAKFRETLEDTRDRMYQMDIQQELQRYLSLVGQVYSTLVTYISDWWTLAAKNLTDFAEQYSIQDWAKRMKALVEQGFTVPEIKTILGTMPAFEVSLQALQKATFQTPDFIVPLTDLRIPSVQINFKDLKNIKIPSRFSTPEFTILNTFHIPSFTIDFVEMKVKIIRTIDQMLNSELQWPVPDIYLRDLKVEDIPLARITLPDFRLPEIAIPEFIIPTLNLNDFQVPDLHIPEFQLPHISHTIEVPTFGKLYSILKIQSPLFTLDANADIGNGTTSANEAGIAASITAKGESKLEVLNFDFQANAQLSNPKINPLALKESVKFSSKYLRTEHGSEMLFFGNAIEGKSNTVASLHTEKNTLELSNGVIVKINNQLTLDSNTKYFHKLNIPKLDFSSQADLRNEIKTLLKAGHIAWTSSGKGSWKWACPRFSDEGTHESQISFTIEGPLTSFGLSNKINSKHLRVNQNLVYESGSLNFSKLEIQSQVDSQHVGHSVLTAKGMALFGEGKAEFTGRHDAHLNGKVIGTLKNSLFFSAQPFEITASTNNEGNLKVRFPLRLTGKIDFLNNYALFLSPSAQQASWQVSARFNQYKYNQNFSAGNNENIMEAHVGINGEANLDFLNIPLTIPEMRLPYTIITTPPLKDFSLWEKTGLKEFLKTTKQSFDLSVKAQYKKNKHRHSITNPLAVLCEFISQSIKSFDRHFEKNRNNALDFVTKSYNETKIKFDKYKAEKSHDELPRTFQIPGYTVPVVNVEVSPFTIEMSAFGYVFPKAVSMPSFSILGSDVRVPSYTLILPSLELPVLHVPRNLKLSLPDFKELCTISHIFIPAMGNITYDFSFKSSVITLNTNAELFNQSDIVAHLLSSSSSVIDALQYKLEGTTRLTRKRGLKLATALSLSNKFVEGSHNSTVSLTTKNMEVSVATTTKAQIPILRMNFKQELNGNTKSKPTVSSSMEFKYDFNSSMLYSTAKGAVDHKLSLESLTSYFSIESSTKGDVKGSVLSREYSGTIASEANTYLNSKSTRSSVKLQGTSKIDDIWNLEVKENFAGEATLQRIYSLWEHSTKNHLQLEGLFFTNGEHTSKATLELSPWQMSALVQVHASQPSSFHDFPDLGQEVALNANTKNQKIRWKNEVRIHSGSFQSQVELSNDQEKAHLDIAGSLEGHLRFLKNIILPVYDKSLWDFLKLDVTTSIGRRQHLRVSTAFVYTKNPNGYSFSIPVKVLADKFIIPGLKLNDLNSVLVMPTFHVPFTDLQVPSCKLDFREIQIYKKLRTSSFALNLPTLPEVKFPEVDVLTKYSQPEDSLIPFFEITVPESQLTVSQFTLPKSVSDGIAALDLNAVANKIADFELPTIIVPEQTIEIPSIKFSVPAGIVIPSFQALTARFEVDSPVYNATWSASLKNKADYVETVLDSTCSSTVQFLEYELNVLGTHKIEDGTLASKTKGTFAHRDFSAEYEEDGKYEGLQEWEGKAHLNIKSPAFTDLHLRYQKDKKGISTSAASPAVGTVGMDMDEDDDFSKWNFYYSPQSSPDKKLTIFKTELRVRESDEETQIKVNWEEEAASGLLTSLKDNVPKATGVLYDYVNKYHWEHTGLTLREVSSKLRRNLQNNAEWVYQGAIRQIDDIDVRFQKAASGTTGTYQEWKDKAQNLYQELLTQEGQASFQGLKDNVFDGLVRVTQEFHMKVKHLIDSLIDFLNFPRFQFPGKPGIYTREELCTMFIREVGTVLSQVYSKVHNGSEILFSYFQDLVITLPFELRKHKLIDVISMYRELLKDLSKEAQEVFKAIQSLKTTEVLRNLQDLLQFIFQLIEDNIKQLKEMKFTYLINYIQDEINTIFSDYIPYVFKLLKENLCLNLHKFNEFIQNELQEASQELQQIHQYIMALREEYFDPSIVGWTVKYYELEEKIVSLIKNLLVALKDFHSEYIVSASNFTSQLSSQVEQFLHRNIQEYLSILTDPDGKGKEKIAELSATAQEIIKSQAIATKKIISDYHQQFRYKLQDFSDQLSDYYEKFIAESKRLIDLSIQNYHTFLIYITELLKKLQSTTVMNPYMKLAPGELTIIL
T2 sequence (P04114 28-4563): as above
T3 sequence (P04114 28-4563): as above

Row | Substance | Inhibition of binding between LBP-1 and LDL (LBP-1/LDL binding) | Binding of LDL to recombinant LBP-1 (recombinant LBP-1) | Binding of LDL to recombinant LBP-2 (recombinant LBP-2) | Accumulation of radiolabeled LDL in ballooned abdominal aorta versus nonimmune-ballooned rabbits [1] | Less aortic cholesterol content as compared to control mice [2] [%] | Effect of immunization on body weight [3] | Inhibition of binding between LBP-2 and LDL (LBP-2/LDL binding)
1 | val-asp-val-asp-glu-tyr-asp-glu-asn-lys-phe-val-asp-glu-glu-asp-gly-gly-asp-gly (VDVDEYDENKFVDEEDGGDG; listed as Homo sapiens) [BHF-1] | inhibited binding | reduce the binding | reduce the binding | lower accumulation | 24 | no effect | 
2 | polyglutamic acid [reference compound] | inhibited binding |  |  |  |  |  | inhibited binding
